Patent publication US10065970B2 (Genentech, Inc., priority 2015, dated 2018)
Read-outs that look alike come from different tables or passages of the source.

Target: PI3Kα (alpha) (Homo sapiens (Human), UniProt P42336)
Experiment: p110α (alpha) PI3K Binding Assay (ADP-Glo lipid kinase reaction)
Type: biochemical
Conditions: read-out: PI3Kα-(alpha) ATP (Ki) micromolar
Protocol: The ability of a compound of the invention to act as an inhibitor of PI3Kα was determined using the methods of Example 901.
PI3K Binding assays are intended for determining the biochemical potency of small molecule PI3K inhibitors. The PI3K lipid kinase reaction is performed in the presence of PIP2:3PS lipid substrate (Promega #V1792) and ATP. Following the termination if the kinase reaction, turnover of ATP to ADP by the phosphorylation of the lipid substrate is detected using the Promega ADP-Glo™ (Promega #V1792) assay. Reactions are carried out using the following conditions:
After 120 minutes of reaction time, the kinase reaction is terminated. Any ATP remaining after the reaction is depleted, leaving only ADP. Then the Kinase Detection Reagent is added to convert ADP to ATP, which is used in a coupled luciferin/luciferase reaction. The luminescent output is measured and is correlated with kinase activity.
All reactions are carried out at room temperature. A 3 μl mixture (1:1) of enzyme/lipid substrate solution is added to a 384 well white assay plate (Perkin Elmer #6007299) containing 50 nl of test compound or DMSO only for untreated controls. The reaction is started by the addition of 2 μl ATP/MgCl2. The kinase reaction buffer contains 50 mM HEPES, 50 mM NaCl, 3 mM MgCl2, 0.01% BSA, 1% DMSO, and enzyme and substrate concentrations as indicated in the above table. The reaction is stopped by the addition of 10 μL ADP-Glo reagent. Plates are read in a Perkin Elmer Envision system using luminescence mode. 10 point dose response curves are generated for each test compound. Ki values for each compound are determined using the Morrison Equation.

[1] = PI3K alpha 0.2 nM, ATP 40 μM, PIP2:3PS 50 μM, 120 min, room temperature, Ki by Morrison Equation

Sequence of PI3Kα (alpha) (P42336 whole entry): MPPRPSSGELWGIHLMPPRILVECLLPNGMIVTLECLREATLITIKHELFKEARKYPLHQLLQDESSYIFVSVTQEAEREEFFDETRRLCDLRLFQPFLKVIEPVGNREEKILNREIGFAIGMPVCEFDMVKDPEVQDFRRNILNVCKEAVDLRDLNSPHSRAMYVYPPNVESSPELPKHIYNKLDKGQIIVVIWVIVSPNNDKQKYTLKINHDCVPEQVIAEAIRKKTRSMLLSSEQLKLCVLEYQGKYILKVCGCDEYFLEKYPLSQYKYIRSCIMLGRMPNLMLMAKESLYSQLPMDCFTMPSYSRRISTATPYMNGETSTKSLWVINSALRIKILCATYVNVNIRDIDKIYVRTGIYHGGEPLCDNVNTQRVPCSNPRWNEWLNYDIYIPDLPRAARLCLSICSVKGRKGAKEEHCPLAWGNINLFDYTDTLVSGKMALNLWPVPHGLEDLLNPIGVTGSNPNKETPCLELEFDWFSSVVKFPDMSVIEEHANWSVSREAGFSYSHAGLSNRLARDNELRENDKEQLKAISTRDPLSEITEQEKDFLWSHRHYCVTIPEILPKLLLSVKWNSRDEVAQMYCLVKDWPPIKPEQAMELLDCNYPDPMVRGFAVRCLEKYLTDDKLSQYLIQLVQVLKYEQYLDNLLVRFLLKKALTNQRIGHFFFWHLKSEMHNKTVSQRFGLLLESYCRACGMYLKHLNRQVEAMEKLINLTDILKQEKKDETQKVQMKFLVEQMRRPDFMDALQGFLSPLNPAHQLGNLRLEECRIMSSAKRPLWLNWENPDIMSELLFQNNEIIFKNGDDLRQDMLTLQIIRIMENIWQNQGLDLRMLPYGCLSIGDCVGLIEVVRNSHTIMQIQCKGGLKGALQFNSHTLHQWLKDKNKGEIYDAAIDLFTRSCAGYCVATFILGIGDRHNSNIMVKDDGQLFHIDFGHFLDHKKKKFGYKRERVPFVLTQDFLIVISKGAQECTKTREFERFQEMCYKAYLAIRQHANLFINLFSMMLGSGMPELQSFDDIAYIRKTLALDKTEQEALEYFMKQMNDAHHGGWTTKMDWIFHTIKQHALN
Sequence of PI3Kα (alpha) (P27986 whole entry partner): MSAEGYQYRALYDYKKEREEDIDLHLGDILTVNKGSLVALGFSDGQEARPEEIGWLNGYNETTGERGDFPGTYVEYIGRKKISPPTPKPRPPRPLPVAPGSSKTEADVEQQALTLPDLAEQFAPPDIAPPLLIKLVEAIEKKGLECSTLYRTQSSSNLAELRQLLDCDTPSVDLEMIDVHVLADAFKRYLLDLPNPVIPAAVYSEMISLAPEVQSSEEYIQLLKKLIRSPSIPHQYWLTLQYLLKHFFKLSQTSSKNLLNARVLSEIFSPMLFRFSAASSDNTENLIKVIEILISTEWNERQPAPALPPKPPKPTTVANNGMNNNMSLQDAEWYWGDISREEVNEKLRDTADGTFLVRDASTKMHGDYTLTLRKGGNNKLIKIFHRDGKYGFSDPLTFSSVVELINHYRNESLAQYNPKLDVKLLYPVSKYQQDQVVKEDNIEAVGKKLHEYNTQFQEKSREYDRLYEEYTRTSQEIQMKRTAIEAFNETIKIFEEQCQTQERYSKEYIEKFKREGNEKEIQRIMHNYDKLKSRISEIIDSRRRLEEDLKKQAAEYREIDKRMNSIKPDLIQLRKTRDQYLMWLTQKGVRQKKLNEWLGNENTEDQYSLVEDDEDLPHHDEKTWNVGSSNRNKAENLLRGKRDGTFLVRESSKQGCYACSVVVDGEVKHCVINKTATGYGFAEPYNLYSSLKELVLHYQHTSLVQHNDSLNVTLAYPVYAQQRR

| SMILES | Ki [1] [nM] | Ki [nM] |
| --- | --- | --- |
| Nc1nc2cc(-c3nc4cc(N[C@H]5C[C@H](F)C5)cc5c4n3CCCO5)ccc2o1 (single isomer, unassigned) [Example 202, 1-(2-Aminobenzo[d]oxazol-5-yl)-N-((1r,3r)-3-fluorocyclobutyl)-8,9-dihydro-7H-6-oxa-2,9a-diazabenzo[cd]azulen-4-amine] | 0.563 |  |
| Nc1nc2cc(-c3nc4cc(N[C@H]5C[C@@H](F)C5)cc5c4n3CCCO5)ccc2o1 (single isomer, unassigned) [Example 203, 1-(2-Aminobenzo[d]oxazol-5-yl)-N-((1s,3s)-3-fluorocyclobutyl)-8,9-dihydro-7H-6-oxa-2,9a-diazabenzo[cd]azulen-4-amine] | 1.37 |  |
| NC(=O)[C@H](C1CC1)n1cc(-c2cc3c4c(c2)nc(-c2ccc5oc(N)nc5c2)n4CCCO3)cn1 (single isomer, unassigned) [Example 230] | 0.309 |  |
| NC(=O)[C@@H](C1CC1)n1cc(-c2cc3c4c(c2)nc(-c2ccc5oc(N)nc5c2)n4CCCO3)cn1 (single isomer, unassigned) [Example 231] | 0.437 |  |
| COC[C@](C)(C(N)=O)n1cc(-c2cc3c4c(c2)nc(-c2ccc5oc(N)nc5c2)n4CCCO3)cn1 (single isomer, unassigned) [Example 232] | 0.311 |  |
| COC[C@@](C)(C(N)=O)n1cc(-c2cc3c4c(c2)nc(-c2ccc5oc(N)nc5c2)n4CCCO3)cn1 (single isomer, unassigned) [Example 233] | 0.119 |  |
| CC[C@@H](Oc1cc2c3c(c1)nc(-c1ccc(-c4nc[nH]n4)cc1)n3CCCCO2)C(N)=O (single isomer, unassigned) [Example 267] | 1.28 |  |
| CC[C@H](Oc1cc2c3c(c1)nc(-c1ccc(-c4nc[nH]n4)cc1)n3CCCCO2)C(N)=O (single isomer, unassigned) [Example 268] | 0.0214 |  |
| C[C@@H](Oc1cc2c3c(c1)nc(-c1ccc4sc(N)nc4c1)n3CCCCO2)C(N)=O (single isomer, unassigned) [Example 275] | 0.754 |  |
| C[C@H](Oc1cc2c3c(c1)nc(-c1ccc4sc(N)nc4c1)n3CCCCO2)C(N)=O (single isomer, unassigned) [Example 276] | 0.113 |  |
| C[C@H](Oc1cc2c3c(c1)nc(-c1cc4sc(N)nc4cc1F)n3CCCCO2)C(N)=O (single isomer, unassigned) [Example 277] | 0.208 |  |
| C[C@@H](Oc1cc2c3c(c1)nc(-c1cc4sc(N)nc4cc1F)n3CCCCO2)C(N)=O (single isomer, unassigned) [Example 278] | 4.6 |  |
| NC(=O)[C@H](Oc1cc2c3c(c1)nc(-c1cc(F)c4nc(N)sc4c1)n3CCCCO2)C1CC1 (single isomer, unassigned) [Example 279] | 1.02 |  |
| NC(=O)[C@@H](Oc1cc2c3c(c1)nc(-c1cc(F)c4nc(N)sc4c1)n3CCCCO2)C1CC1 (single isomer, unassigned) [Example 280] | < 0.02 |  |
| NC(=O)[C@@H](Oc1cc2c3c(c1)nc(-c1ccc4nc(N)sc4c1)n3CCCCO2)C1CC1 (single isomer, unassigned) [Example 281] | 0.027 |  |
| NC(=O)[C@H](Oc1cc2c3c(c1)nc(-c1ccc4nc(N)sc4c1)n3CCCCO2)C1CC1 (single isomer, unassigned) [Example 282] | 5.53 |  |
| C[C@H](Oc1cc2c3c(c1)nc(-c1ccc4nc(N)sc4c1F)n3CCCCO2)C(N)=O (single isomer, unassigned) [Example 286] | 0.072 |  |
| C[C@@H](Oc1cc2c3c(c1)nc(-c1ccc4nc(N)sc4c1F)n3CCCCO2)C(N)=O (single isomer, unassigned) [Example 287] | 1.71 |  |
| CC[C@@H](C(N)=O)n1cc(-c2cc3c4c(c2)nc(-c2ccc5oc(N)nc5n2)n4CCCCO3)cn1 (single isomer, unassigned) [Example 301] | 0.038 |  |
| CC[C@H](C(N)=O)n1cc(-c2cc3c4c(c2)nc(-c2ccc5oc(N)nc5n2)n4CCCCO3)cn1 (single isomer, unassigned) [Example 302] | 0.102 |  |
| COC[C@H](Oc1cc2c3c(c1)nc(-c1ccc4nc(N)sc4c1)n3CCCCO2)C(N)=O (single isomer, unassigned) [Example 303] | 5.62 |  |

| SMILES | Ki [1] [nM] | Ki [nM] |
| --- | --- | --- |
| COC[C@@H](Oc1cc2c3c(c1)nc(-c1ccc4nc(N)sc4c1)n3CCCCO2)C(N)=O (single isomer, unassigned) [Example 304] | 0.127 |  |
| NC(=O)[C@@H](Oc1cc2c3c(c1)nc(-c1ccc(-c4ncn[nH]4)c(F)c1)n3CCCCO2)C1CC1 (single isomer, unassigned) [Example 305] | < 0.02 |  |
| NC(=O)[C@H](Oc1cc2c3c(c1)nc(-c1ccc(-c4ncn[nH]4)c(F)c1)n3CCCCO2)C1CC1 (single isomer, unassigned) [Example 306] | 0.72 |  |
| CC[C@@H](C(N)=O)n1cc(-c2cc3c4c(c2)nc(-c2ccc5oc(N)nc5n2)n4CCCO3)cn1 (single isomer, unassigned) [Example 311] |  | 0.031 |
| CC[C@H](C(N)=O)n1cc(-c2cc3c4c(c2)nc(-c2ccc5oc(N)nc5n2)n4CCCO3)cn1 (single isomer, unassigned) [Example 312] |  | 0.039 |
| COC[C@@H](Oc1cc2c3c(c1)nc(-c1ccc4nc(N)sc4n1)n3CCCCO2)C(N)=O (single isomer, unassigned) [Example 314] | 0.737 |  |
| COC[C@H](Oc1cc2c3c(c1)nc(-c1ccc4nc(N)sc4n1)n3CCCCO2)C(N)=O (single isomer, unassigned) [Example 315] | < 0.02 |  |
| Nc1nc2cc(-c3nc4cc(Br)cc5c4n3CCCO5)ccc2o1 [Example 101, 5-(4-Bromo-8,9-dihydro-7H-6-oxa-2,9a-diazabenzo[cd]azulen-1-yl)benzo [d]oxazol 2-amine] | 7.75 |  |
| Cc1nc2nc(-c3nc4cc(Br)cc5c4n3CCCO5)ccc2o1 [Example 102, 4-bromo-1-(2-methyloxazolo[4,5-b]pyridin-5-yl)-8,9-dihydro-7H-6-oxa-2,9a-diazabenzo[cd]azulene] | 322 |  |
| Cc1nc2cc(-c3nc4cc(N5CCCC5C(N)=O)cc5c4n3CCCO5)ccc2o1 (centres unmarked) [Example 103, 1-(1-(2-methylbenzo[d]oxazol-5-yl)-8,9-dihydro-7H-6-oxa-2,9a-diazabenzo[cd]azulen-4-yl)pyrrolidine-2-carboxamide] | 16.2 |  |
| C[C@H](Nc1cc2c3c(c1)nc(-c1ccc4oc(N)nc4c1)n3CCCO2)C(N)=O [Example 105, (S)-2-((1-(2-Aminobenzo[d]oxazol-5-yl)-8,9-dihydro-7H-6-oxa-2,9a-diazabenzo[cd]azulen-4-yl)amino)propanamide] | 0.032 |  |
| C[C@H](Nc1cc2c3c(c1)nc(-c1ccccc1)n3CCCO2)C(N)=O [Example 106, (S)-2-((1-phenyl-8,9-dihydro-7H-6-oxa-2,9a-diazabenzo[cd]azulen-4-yl)amino)propanamide] | 130 |  |
| C[C@@H](Nc1cc2c3c(c1)nc(-c1ccc4oc(N)nc4c1)n3CCCO2)C(N)=O [Example 107, (R)-2-((1-(2-Aminobenzo[d]oxazol-5-yl)-8,9-dihydro-7H-6-oxa-2,9a-diazabenzo[cd]azulen-4-yl)amino)propanamide] | 0.58 |  |
| C[C@H](Nc1cc2c3c(c1)nc(-c1cccnc1)n3CCCO2)C(N)=O [Example 108, (S)-2-((1-(Pyridin-3-yl)-8,9-dihydro-7H-6-oxa-2,9a-diazabenzo[cd]azulen-4-yl)amino)propanamide] | 22.1 |  |
| C[C@H](Nc1cc2c3c(c1)nc(-c1ccncn1)n3CCCO2)C(N)=O [Example 109, (S)-2-((1-(pyrimidin-4-yl)-8,9-dihydro-7H-6-oxa-2,9a-diazabenzo[cd]azulen-4-yl)amino)propanamide] | 24.3 |  |
| C[C@H](Nc1cc2c3c(c1)nc(-c1ccc(C#N)cn1)n3CCCO2)C(N)=O [Example 110, (S)-2-((1-(5-Cyanopyridin-2-yl)-8,9-dihydro-7H-6-oxa-2,9a-diazabenzo[cd]azulen-4-yl)amino)propanamide] | 261 |  |
| COc1ccc(-c2nc3cc(N[C@@H](C)C(N)=O)cc4c3n2CCCO4)cn1 [Example 111, (S)-2-((1-(6-Methoxypyridin-3-yl)-8,9-dihydro-7H-6-oxa-2,9a-diazabenzo[cd]azulen-4-yl)amino)propanamide] | 11.6 |  |
| C[C@H](Nc1cc2c3c(c1)nc(-c1ccccn1)n3CCCO2)C(N)=O [Example 112, (S)-2-((1-(Pyridin-2-yl)-8,9-dihydro-7H-6-oxa-2,9a-diazabenzo[cd]azulen-4-yl)amino)propanamide] | 160 |  |
| NC(=O)[C@@H](Nc1cc2c3c(c1)nc(-c1ccc4c(c1)OC(F)(F)O4)n3CCCO2)C1CC1 [Example 113, (S)-2-Cyclopropyl-2-((1-(2,2-difluorobenzo[d][1,3]dioxol-5-yl)-8,9-dihydro-7H-6-oxa-2,9a-diazabenzo[cd]azulen-4-yl)amino)acetamide] | 268 |  |
| NC(=O)[C@@H](Nc1cc2c3c(c1)nc(-c1ccc4c(c1)OCO4)n3CCCO2)C1CC1 [Example 114, (S)-2-((1-(Benzo[d][1,3]dioxol-5-yl)-8,9-dihydro-7H-6-oxa-2,9a-diazabenzo[cd]azulen-4-yl)amino)-2-cyclopropylacetamide] | 23.3 |  |
